Test results: paper PMC7894572 (Chemmedchem, 2020)
Structures can show the parent of a compound that is named as a salt. Where two headings read alike, the source gives them in different places.

How the values were obtained:
SARS‐CoV PL^pro = SARS‐CoV PL^pro (Severe acute respiratory syndrome coronavirus, UniProt P0C6X7); test: biochemical; format: biochemical
SARS‐CoV‐2 PL^pro = SARS‐CoV‐2 PL^pro (Severe acute respiratory syndrome coronavirus 2, UniProt P0DTD1); test: biochemical; format: biochemical
SARS‐CoV‐2 = test: microbe, parasite or virus in culture; format: cell-based
in vitro = conditions: African green monkey
[1] = read-out: Inhibition SARS‐CoV PL^pro, class (Table 1)
[2] = read-out: Inhibition SARS‐CoV‐2 PL^pro, class (Table 1)
[3] = read-out: Inhibition SARS‐CoV‐2 PL^pro, class (Table 2)
[4] = read-out: Percentage inhibition SARS‐CoV PL^pro
[5] = read-out: Inhibition SARS‐CoV PL^pro, class (Table 2)

For `Cc1ccccc1C(=O)NC(C)c1ccccc1` (stereo not drawn) [Compound 4 a, 2‐Methyl‐N‐(1‐phenyl)benzamide], the inhibition at 100 µM (SARS‐CoV PL^pro; [1]) was < 50%.

For `Cc1ccccc1C(=O)NC(c1ccccc1)c1ccccc1` [Compound 4 c, N ‐(Diphenylmethyl)‐2‐methylbenzamide], the “Inhibition of SARS‐CoV PL^pro, in words” value (SARS‐CoV PL^pro) was “inactive” and the inhibition at 100 µM (SARS‐CoV PL^pro; [1]) was < 50%.

For `Cc1ccccc1C(=O)N[C@@H](C)c1cccc2ccccc12` [Compound 4 d, 2‐Methyl‐N‐[(1S)‐1‐naphth‐1‐ylethyl]benzamide], the “Inhibition of SARS‐CoV‐2 PL^pro, in words” value (SARS‐CoV‐2 PL^pro) was “not show inhibitory activity”, the inhibition at 100 µM (SARS‐CoV‐2 PL^pro; [2]) was < 50% and the inhibition at 100 µM (SARS‐CoV PL^pro; [1]) was < 50%.

With `Cc1ccccc1C(=O)NC(CO)c1cccc2ccccc12` (stereo not drawn) [Compound 8, N ‐(2‐Hydroxy‐1‐naphth‐1‐ylethyl)‐2‐methylbenzamide] the “Inhibition of SARS‐CoV PL^pro, in words” value (SARS‐CoV PL^pro) was “inactivity” and the inhibition at 100 µM (SARS‐CoV PL^pro; [1]) was < 50%.

With `Cc1ccccc1NC(=O)C(C)c1cccc2ccccc12` (stereo not drawn) [Compound 11 a, N ‐(2‐Methylphenyl)‐2‐naphth‐1‐ylpropanamide] the “Inhibition of SARS‐CoV‐2 PL^pro, in words” value (SARS‐CoV‐2 PL^pro) was “not show inhibitory activity”, the inhibition at 100 µM (SARS‐CoV‐2 PL^pro; [2]) was < 50% and the melting point was 151 °C. The inhibition at 100 µM (SARS‐CoV PL^pro; [1]) was < 50%.

With `CC(C(=O)Nc1ccccc1F)c1cccc2ccccc12` (stereo not drawn) [Compound 11 b, N ‐(2‐Fluorphenyl)‐2‐naphth‐1‐ylpropanamide] the inhibition at 100 µM (SARS‐CoV‐2 PL^pro; [2]) was < 50%, the melting point was 116 °C and the inhibition at 100 µM (SARS‐CoV PL^pro; [1]) was < 50%.

For `CC(C(=O)Nc1ccc(S(N)(=O)=O)cc1)c1cccc2ccccc12` (stereo not drawn) [Compound 11 c, 2‐Naphth‐1‐yl‐N‐(4‐sulfamoylphenyl)propanamide], the inhibition at 100 µM (SARS‐CoV‐2 PL^pro; [2]) was < 50%, the melting point was 206 °C and the inhibition at 100 µM (SARS‐CoV PL^pro; [1]) was < 50%.

With `CC(C(=O)NC1CCCCC1)c1cccc2ccccc12` (stereo not drawn) [Compound 11 d, N ‐Cyclohexyl‐2‐naphth‐1‐ylpropanamide] the inhibition at 100 µM (SARS‐CoV‐2 PL^pro; [2]) was < 50%, the melting point was 151 °C and the inhibition at 100 µM (SARS‐CoV PL^pro; [1]) was < 50%.

In the case of `Cc1cccc2c1CN([C@H](C)c1cccc3ccccc13)C2.Cl` [Compound 14 a, 4‐Methyl‐2‐[(1R)‐1‐naphth‐1‐ylethyl]‐2,3‐dihydro‐1H‐isoindol hydrochloride], the inhibition at 100 µM (SARS‐CoV‐2 PL^pro; [3]) is reported as < 50%, the melting point is reported as 247 °C and the inhibition at 10 µM (SARS‐CoV PL^pro; [4]) is reported as 45%.

For `c1ccc2c(c1)CN(Cc1cccc3ccccc13)C2` [Compound 14 c, 2‐(Naphth‐1‐ylmethyl)‐2,3‐dihydro‐1H‐isoindol hydrochloride], the inhibition at 100 µM (SARS‐CoV PL^pro; [5]) was < 50%.

With `COc1ccc2c(c1)CN([C@H](C)c1cccc3ccccc13)C2` [Compound 14 d, 5‐Methoxy‐2‐[(1R)‐1‐naphth‐1‐ylethyl]‐2,3‐dihydro‐1H‐isoindol] the inhibition at 100 µM (SARS‐CoV‐2 PL^pro; [3]) was < 50% and the IC50 (SARS‐CoV PL^pro) was 14 ± 1 µM.

With `C[C@H](c1cccc2ccccc12)N1Cc2cccc([N+](=O)[O-])c2C1` [Compound 14 e, 2‐[(1R)‐1‐Naphth‐1‐ylethyl]‐4‐nitro‐2,3‐dihydro‐1H‐isoindole] the “Inhibition of SARS‐CoV PL^pro, in words” value (SARS‐CoV PL^pro) was “Inactive” and the inhibition at 10 µM (SARS‐CoV PL^pro; [4]) was < 50%.

In the case of `C[C@H](c1cccc2ccccc12)N1Cc2ccc([N+](=O)[O-])cc2C1` [Compound 14 f, 2‐[(1R)‐1‐Naphth‐1‐ylethyl]‐5‐nitro‐2,3‐dihydro‐1H‐isoindole], the “Inhibition of SARS‐CoV PL^pro, in words” value (SARS‐CoV PL^pro) is reported as “Inactive” and the inhibition at 100 µM (SARS‐CoV PL^pro; [5]) is reported as < 50%.

In the case of `C[C@H](c1cccc2ccccc12)N1Cc2ccccc2C1.Cl` [Compound 14 h, 2‐[(1R)‐1‐Naphth‐1‐ylethyl]‐2,3‐dihydro‐1H‐isoindol hydrochloride], the “SI (selectivity index)” value (SARS‐CoV‐2) is reported as 56.3, the EC50 (SARS‐CoV‐2; Severe acute respiratory syndrome coronavirus 2, Vero C1008, 24 h, read-out: EC50 inhibition of SARS‐CoV‐2 replication) is reported as 7.85 ± 1.5 µM and the IC50 (SARS‐CoV‐2 PL^pro) is reported as 7.6 ± 0.2 µM. The IC50 (SARS‐CoV PL^pro) was 2.9 ± 0.2 µM and the CC50 (in vitro) was 442 ± 1.37 µM.

With `C[C@@H](c1cccc2ccccc12)N1Cc2ccccc2C1.Cl` [Compound 14 i, 2‐[(1S)‐1‐Naphth‐1‐ylethyl]‐2,3‐dihydro‐1H‐isoindol hydrochloride] the “Inhibition of SARS‐CoV‐2 PL^pro, in words” value (SARS‐CoV‐2 PL^pro) was “not show inhibitory activity”, the inhibition at 100 µM (SARS‐CoV‐2 PL^pro; [3]) was < 50% and the “Inhibition of SARS‐CoV PL^pro, in words” value (SARS‐CoV PL^pro) was “abolished activity”. For the same molecule, the inhibition at 100 µM (SARS‐CoV PL^pro; [5]) was < 50%.

With `C[C@H](c1cccc2ccccc12)N1Cc2cccc(N)c2C1` [Compound 14 j, 2‐[(1R)‐1‐Naphth‐1‐ylethyl]‐2,3‐dihydro‐1H‐isoindol‐4‐amine] the inhibition at 100 µM (SARS‐CoV‐2 PL^pro; [3]) was < 50% and the IC50 (SARS‐CoV PL^pro) was 32 ± 2 µM.

With `C[C@H](c1cccc2ccccc12)N1Cc2ccc(N)cc2C1` [Compound 14 k, 2‐[(1R)‐1‐Naphth‐1‐ylethyl]‐2,3‐dihydro‐1H‐isoindol‐5‐amine] the “Activity in the viral replication assay, in words” value (SARS‐CoV‐2; SARS‐CoV‐2, Vero E6 cells) was “completely inactive”, the IC50 (SARS‐CoV‐2 PL^pro) was 57 ± 1 µM and the IC50 (SARS‐CoV PL^pro) was 4.9 ± 0.3 µM. For the same molecule, the CC50 (in vitro) was > 500 µM.

`C[C@H](c1cccc2ccccc12)N1Cc2ccc(O)cc2C1` [Compound 14 l, 2‐[(1R)‐1‐Naphth‐1‐ylethyl]‐2,3‐dihydro‐1H‐isoindol‐5‐ol hydrochloride] showed an IC50 (SARS‐CoV PL^pro) of 4.5 ± 0.4 µM.

`Cc1ccccc1CN[C@H](C)c1cccc2ccccc12` [Compound 17, (1R)‐N‐(2‐Methylbenzyl)‐1‐naphth‐1‐ylethylamine hydrochloride] gave an inhibition at 100 µM (SARS‐CoV PL^pro; [4]) of 55%.
